Data from patent publication US20190045783A1, “SUBSTITUTED IMIDAZOLYLCARBOXAMIDES AS PESTICIDES” (BAYER CROPSCIENCE AKTIENGESELLSCHAFT, priority 2016, published 2019).
Where two headings read alike, the source gives them in different places.

Columns and labels:
[1] = log P by HPLC on reversed-phase column (C18), EEC directive 79/831 Annex V.A8; format: physicochemical
[2] = system: green peach aphid (Myzus persicae); assay: Myzus persicae spray test (Chinese cabbage leaf discs); format: in vivo; details: for pest or weed control at 500 g/ha: Myzus persicae, foliar, read-out: efficacy in %
Procedure: Myzus persicae—Spray Test
To produce a suitable active ingredient formulation, 1 part by weight of active ingredient is dissolved with the stated parts by weight of solvent and made up with water containing an emulsifier concentration of 1000 ppm until the desired concentration is attained. To produce further test concentrations, the formulation is diluted with emulsifier-containing water.
After 5-6 days, the efficacy in % is determined. 100% means that all the aphids have been killed; 0% means that no aphids have been killed.

[3] = system: green peach aphids (Myzus persicae); assay: Myzus persicae oral test; format: in vivo; details: for pest or weed control at 20 ppm: Myzus persicae, 120 h, read-out: efficacy in %
Procedure: Solvent: 100 parts by weight of acetone
Subsequently, the plates are sealed with parafilm, which a mixed population of green peach aphids (Myzus persicae) within a second microtitre plate is able to puncture and imbibe the solution through it.
After 5 days, the efficacy in % is determined. 100% means that all the aphids have been killed; 0% means that no aphids have been killed.

[4] = neutral range, pH 7.8, HPLC C18, 43° C., preparation examples, read-out: log P[n]
[5] = reversed-phase HPLC column (C18), neutral range, pH 7.8, HPLC C18, 43° C., Table 1, read-out: logP [n]
[6] = application rate 500 g/ha, after 5-6 days, Chinese cabbage leaf discs, 100% = all aphids killed
[7] = application rate 20 ppm, after 5 days, oral, 100% = all aphids killed
[8] = neutral range, pH 7.8, HPLC C18, 43° C., Table 1
[9] = reversed-phase HPLC column (C18), neutral range, pH 7.8, HPLC C18, 43° C., preparation examples, read-out: log P[n]

logP [n] ([1]; pH 7.8) | SMILES | efficacy in % [2, 6] [%] | efficacy in % [3, 7] [%] | also measured
– | COC(=O)c1ncc(C(=O)N(C)c2cccnc2)n1C [I-1-026, Methyl 1-methyl-5-[methyl(pyridin-3-yl)carbamoyl]-1H-imidazol-2-carboxylate] | – | – | chromatographic logP ([1]; acidic range, pH 2.7, HPLC C18, 43° C., preparation examples, read-out: log P[a]): 0.53; chromatographic logP [1, 4]: 0.84; chromatographic logP [1, 5]: 0.42; pest or weed control at 500 g/ha [2, 6]: 90%; pest or weed control at 20 ppm [3, 7]: 100%
1.12 | CCN(C)C(=O)c1ncc(C(=O)N(CC)c2cccnc2)n1C [I-1-068] | 100 | 90 | –
0.94 | COCCNC(=O)c1ncc(C(=O)N(C)c2cccnc2)n1C [I-1-064] | 90 | 100 | –
1.39 | CN(C(=O)c1cnc(C(=O)NC(CO)c2ccccc2)n1C)c1cccnc1 (stereo not drawn) [I-1-079] | 90 | 90 | –
– | CC(=O)c1ncc(C(=O)N(C)c2cccnc2)n1C [I-1-085] | 90 | 100 | logP [n] [1, 8]: 0.87
– | CN(C(=O)c1cnc(C(=O)N2CCCC2)n1C)c1cccnc1 [I-1-054, N,1-Dimethyl-N-(pyridin-3-yl)-2-(pyrrolidin-1-ylcarbonyl)-1H-imidazole-5-carboxamide] | – | – | chromatographic logP [1, 5]: 1.02; pest or weed control at 500 g/ha [2, 6]: 100%; pest or weed control at 20 ppm [3, 7]: 100%
1.06 | CCOC(=O)N/N=C/c1ncc(C(=O)N(C)c2cccnc2)n1C [I-1-017] | 100 | 100 | –
1.86 | CCN(C(=O)c1cnc(/C=N/OCC2CC2)n1C)c1cccnc1 [I-1-042] | 100 | 100 | –
1.26 | COCCOC(=O)N/N=C/c1ncc(C(=O)N(C)c2cccnc2)n1C [I-1-049] | 90 | 100 | –
0.72 | CN(C(=O)c1cnc(C(=O)NS(=O)(=O)C2CC2)n1C)c1cccnc1 [I-1-088] | – | – | –
– | CN(C(=O)c1cnc(C=O)n1C)c1cccnc1 [I-1-007, 2-Formyl-N,1-dimethyl-N-(pyridin-3-yl)-1H-imidazole-5-carboxamide] | – | – | chromatographic logP [1, 9]: 0.59; pest or weed control at 500 g/ha [2]: 100%; pest or weed control at 20 ppm ([3]; po): 100%
1.42 | CN(C(=O)c1cnc(C(=O)NCC(F)(F)F)n1C)c1cccnc1 [I-1-048] | 100 | 100 | –
– | CCNC(=O)c1ncc(C(=O)N(C)c2cccnc2)n1C [I-1-046, N^2-Ethyl-N^5,1-dimethyl-N^5-(pyridin-3-yl)-1H-imidazole-2,5-dicarboxamide] | – | – | chromatographic logP ([1]; reversed-phase HPLC column (C18), acidic range, pH 2.7, HPLC C18, 43° C., preparation examples, read-out: log P[a]): 0.8; chromatographic logP [1, 9]: 0.97; pest or weed control at 500 g/ha [2, 6]: 100%; pest or weed control at 20 ppm [3, 7]: 100%
1.39 | CN(C(=O)c1cnc(C(=O)NCC2CC2)n1C)c1cccnc1 [I-1-063] | – | 100 | –
1.55 | CN(C(=O)c1cnc(C(=O)C(C)(C)C#N)n1C)c1cccnc1 [I-1-067] | 100 | 100 | –
0.89 | CN(C(=O)c1cnc(C(=O)N2CCC2)n1C)c1cccnc1 [I-1-071] | 90 | 100 | –
1.29 | CN(C(=O)c1cnc(C2OCC3(CC3)CO2)n1C)c1cccnc1 [I-1-015] | 90 | 100 | –
1.32 | CN(C(=O)c1cnc(C(=O)C2CC2)n1C)c1cccnc1 [I-1-084] | 90 | 100 | –
0.95 | COCC1COC(c2ncc(C(=O)N(C)c3cccnc3)n2C)O1 (stereo not drawn) [I-1-009] | 90 | 100 | –
– | CCN(CC)C(=O)c1ncc(C(=O)N(C)c2cccnc2)n1C [I-1-058] | 100 | 100 | logP [n] [1, 8]: 1.11
2.14 | CN(C(=O)c1cnc(/C=N/OC2CCCC2)n1C)c1cccnc1 [I-1-052] | 100 | 100 | –
1.24 | CCNC(=O)c1ncc(C(=O)N(CC)c2cccnc2)n1C [I-1-066] | 100 | 100 | –
1.06 | CN(C(=O)c1cnc(C(=O)NC2CC2)n1C)c1cccnc1 [I-1-062] | 100 | 100 | –

logP [n] ([1]; pH 7.8) | SMILES | efficacy in % [2, 6] [%] | efficacy in % [3, 7] [%] | also measured
1.03 | CN(C(=O)c1cnc(C(=O)NC2(C#N)CC2)n1C)c1cccnc1 [I-1-073] | 100 | 100 | –
2.07 | CC(C)CO/N=C/c1ncc(C(=O)N(C)c2cccnc2)n1C [I-1-034] | 90 | 100 | –
1.11 | CCN(C)C(=O)c1ncc(C(=O)N(c2cccnc2)C2CC2)n1C [I-1-087] | – | – | –
– | CN(C(=O)c1cncn1C)c1cccnc1 [N,1-Dimethyl-N-(pyridin-3-yl)-1H-imidazole-5-carboxamide] | – | – | chromatographic logP [1, 9]: 0.44
0.93 | COC(=O)CNC(=O)c1ncc(C(=O)N(C)c2cccnc2)n1C [I-1-077] | – | 90 | –
1.61 | CCN(C(=O)c1cnc(C2OCC(C)(C)CO2)n1C)c1cccnc1 [I-1-040] | 90 | 100 | –
1.66 | CCO/N=C/c1ncc(C(=O)N(CC)c2cccnc2)n1C [I-1-051] | 100 | 100 | –
1.81 | CCN(C(=O)c1cnc(/C=N/OC(C)C)n1C)c1cccnc1 [I-1-041] | 90 | 100 | –
– | Cc1ccc(N(C)C(=O)c2cnc(C(=O)N(C)C)n2C)cn1 [I-1-080] | 90 | 100 | logP [n] [1, 8]: 0.81
– | COC(=O)N(C)/N=C/c1ncc(C(=O)N(C)c2cccnc2)n1C [I-1-018, Methyl (2E)-1-methyl-2-({1-methyl-5-[methyl(pyridin-3-yl)carbamoyl]-1H-imidazol-2-yl}methylene)hydrazinecarboxylate] | – | – | chromatographic logP [1, 4]: 1.08; pest or weed control at 500 g/ha [2, 6]: 100%; pest or weed control at 20 ppm [3, 7]: 100%
– | CC(C)C(=O)c1ncc(C(=O)N(C)c2cccnc2)n1C [I-1-082, 2-Isobutyryl-N,1-dimethyl-N-(pyridin-3-yl)-1H-imidazole-5-carboxamide] | – | – | chromatographic logP [1, 9]: 1.55; pest or weed control at 500 g/ha [2, 6]: 100%
0.45 | CN(C(=O)c1cnc(C(=O)NCCO)n1C)c1cccnc1 [I-1-089] | – | – | –
1.3 | CCC1COC(c2ncc(C(=O)N(C)c3cccnc3)n2C)O1 (stereo not drawn) [I-1-011] | 90 | 100 | –
1.7 | CC(C)O/N=C/c1ncc(C(=O)N(C)c2cccnc2)n1C [I-1-005] | 100 | 100 | –
1.62 | CN(C(=O)c1cnc(C(=O)NC(C)(C)C)n1C)c1cccnc1 [I-1-030] | 90 | 100 | –
0.97 | CN(C(=O)c1cnc(C2OCCS2)n1C)c1cccnc1 (stereo not drawn) [I-1-021] | 100 | 100 | –
1.26 | CC(C)NC(=O)c1ncc(C(=O)N(C)c2cccnc2)n1C [I-1-032] | 100 | 100 | –
0.67 | CCONC(=O)c1ncc(C(=O)N(C)c2cccnc2)n1C [I-1-078] | 90 | – | –
1.55 | C=CCO/N=C/c1ncc(C(=O)N(C)c2cccnc2)n1C [I-1-012] | 90 | 100 | –
– | CCN(C(=O)c1cnc(C(=O)N(C)C)n1C)c1cccnc1 [I-1-072] | 100 | 100 | logP [n] [1, 8]: 0.88
1.83 | C#CCO/N=C/c1ncc(C(=O)N(C)c2cccnc2)n1C [I-1-035] | 100 | 100 | –
1.64 | CCNC(=S)c1ncc(C(=O)N(C)c2cccnc2)n1C [I-1-057] | 90 | 100 | log P[a] ([1]; pH 2.7): 1.21; log P[n] ([1]; pH 7.8): 1.42

SMILES | logP [n] ([1]; pH 7.8) | efficacy in % [2, 6] [%] | efficacy in % [3, 7] [%] | also measured
CCN(C(=O)c1cnc(C2OCCO2)n1C)c1cccnc1 [I-1-003] | 0.98 | 90 | 100 | –
CCC(=O)c1ncc(C(=O)N(C)c2cccnc2)n1C [I-1-086] | 1.23 | 90 | – | –
CN(C(=O)c1cnc(C2OCCO2)n1C)c1cccnc1 [I-1-002] | 0.73 | 90 | 100 | –
CNC(=O)c1ncc(C(=O)N(C)c2cccnc2)n1C [I-1-061] | 0.7 | – | 100 | –
